Relative viability data for 6 cell lines are collected here from the supplement of paper PMC10307832.

What all share (assay): relative viability (nuclei count vs DMSO), 5 days (fraction); higher = more cells survive
Compound in the test “4EGI-1 + Trametinib”: O=C(O)C(Cc1ccccc1[N+](=O)[O-])=NNc1nc(-c2ccc(Cl)c(Cl)c2)cs1 (mixture of isomers) [4EGI-1] + CC(=O)Nc1cccc(-n2c(=O)n(C3CC3)c(=O)c3c(Nc4ccc(I)cc4F)n(C)c(=O)c(C)c32)c1 [Trametinib] (partner 0.02 µM)
The procedure, abridged: (§1)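 Relative viability was taken as the ratio of nuclei in treated wells to nuclei in vehicle wells. Lung cancer cell lines in 1536-well plates received compounds by pin tool one day after seeding, either one drug alone or a fixed anchor-drug dose plus five library-drug doses (not always all listed) in √10 steps. Nuclei were counted on 4× images after 5 days of treatment, and values are medians of duplicate plates.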

Compound in the test “4EGI-1 + Linsitinib”: O=C(O)C(Cc1ccccc1[N+](=O)[O-])=NNc1nc(-c2ccc(Cl)c(Cl)c2)cs1 (mixture of isomers) [4EGI-1] + C[C@]1(O)C[C@@H](c2nc(-c3ccc4ccc(-c5ccccc5)nc4c3)c3c(N)nccn32)C1 [Linsitinib] (partner 1 µM)
The procedure, abridged:
as §1

Compound in the test “4EGI-1 + Decitabine”: O=C(O)C(Cc1ccccc1[N+](=O)[O-])=NNc1nc(-c2ccc(Cl)c(Cl)c2)cs1 (mixture of isomers) [4EGI-1] + Nc1ncn([C@H]2C[C@H](O)[C@@H](CO)O2)c(=O)n1 [Decitabine] (partner 2 µM)
Put shortly:
as §1

Compound in the test “XMD8-85 + Luminespib”: CN1CCN(CC1)C2=CC(=C(C=C2)NC3=NC=C4C(=N3)N(C5=CC=CC=C5C(=O)N4C)C)OC [XMD8-85] + CCNC(=O)c1noc(-c2cc(C(C)C)c(O)cc2O)c1-c1ccc(CN2CCOCC2)cc1 [Luminespib] (partner 0.01 µM)
The procedure, abridged:
as §1

For the cell line H3255, the relative viability with 4EGI-1 + Trametinib (first compound 0.5 µM) stood at 0.679; in the test with 4EGI-1 + Trametinib (first compound 5 µM), 0.614; in the test with 4EGI-1 + Trametinib (first compound 50 µM), 0.523; with 4EGI-1 + Linsitinib (first compound 0.5 µM), 1.09; with 4EGI-1 + Linsitinib (first compound 1.581 µM), 0.697; in the test with 4EGI-1 + Linsitinib (first compound 5 µM) it was 0.994. Moreover, the relative viability with 4EGI-1 + Linsitinib (first compound 15.81 µM) was 0.584; in the test with 4EGI-1 + Linsitinib (first compound 50 µM), 0.857; with 4EGI-1 + Decitabine (first compound 0.5 µM), 0.684; with 4EGI-1 + Decitabine (first compound 5 µM) it was 0.638; with 4EGI-1 + Decitabine (first compound 50 µM) it was 0.594; with XMD8-85 + Luminespib (first compound 0.08 µM), 1.03. In addition, the relative viability is 0.829 in the test with XMD8-85 + Luminespib (first compound 0.253 µM), 0.816 in the test with XMD8-85 + Luminespib (first compound 0.8 µM), 0.889 with XMD8-85 + Luminespib (first compound 2.53 µM) and 0.707 in the test with XMD8-85 + Luminespib (first compound 8 µM).

Regarding NCI-H1975, the relative viability with 4EGI-1 + Trametinib (first compound 0.5 µM) was found to be 0.341; with 4EGI-1 + Trametinib (first compound 1.581 µM), 0.32; with 4EGI-1 + Trametinib (first compound 5 µM), 0.325; with 4EGI-1 + Trametinib (first compound 15.81 µM), 0.289; in the test with 4EGI-1 + Trametinib (first compound 50 µM), 0.212; with 4EGI-1 + Linsitinib (first compound 0.5 µM), 0.902. Besides, the relative viability with 4EGI-1 + Linsitinib (first compound 1.581 µM) amounted to 0.941; with 4EGI-1 + Linsitinib (first compound 5 µM), 1.01; in the test with 4EGI-1 + Linsitinib (first compound 15.81 µM), 1.01; with 4EGI-1 + Linsitinib (first compound 50 µM), 0.698; with 4EGI-1 + Decitabine (first compound 0.5 µM), 0.367; with 4EGI-1 + Decitabine (first compound 1.581 µM), 0.433. Further, the relative viability with 4EGI-1 + Decitabine (first compound 5 µM) turned out to be 0.375; with 4EGI-1 + Decitabine (first compound 15.81 µM) it was 0.355; with 4EGI-1 + Decitabine (first compound 50 µM), 0.221; with XMD8-85 + Luminespib (first compound 0.08 µM) it was 0.398; with XMD8-85 + Luminespib (first compound 0.253 µM), 0.188; with XMD8-85 + Luminespib (first compound 0.8 µM), 0.207. Also, the figures for the relative viability with XMD8-85 + Luminespib (first compound 2.53 µM) and with XMD8-85 + Luminespib (first compound 8 µM) were 0.236 and 0.152, respectively.

Consider NCI-H1793, for which the relative viability in the test with 4EGI-1 + Trametinib (first compound 0.5 µM) was 0.49; with 4EGI-1 + Trametinib (first compound 1.581 µM), 0.431; with 4EGI-1 + Trametinib (first compound 5 µM) it was 0.414; in the test with 4EGI-1 + Trametinib (first compound 15.81 µM) it was 0.407; with 4EGI-1 + Trametinib (first compound 50 µM) it was 0.273; in the test with 4EGI-1 + Linsitinib (first compound 0.5 µM), 1. Moreover, the relative viability with 4EGI-1 + Linsitinib (first compound 1.581 µM) was 0.996; with 4EGI-1 + Linsitinib (first compound 5 µM), 0.819; in the test with 4EGI-1 + Linsitinib (first compound 15.81 µM), 0.645; with 4EGI-1 + Linsitinib (first compound 50 µM), 0.747; with 4EGI-1 + Decitabine (first compound 0.5 µM) it was 0.557; in the test with 4EGI-1 + Decitabine (first compound 1.581 µM), 0.333. Further, the relative viability with 4EGI-1 + Decitabine (first compound 5 µM) worked out at 0.442; with 4EGI-1 + Decitabine (first compound 15.81 µM) it was 0.427; with 4EGI-1 + Decitabine (first compound 50 µM) it was 0.238; in the test with XMD8-85 + Luminespib (first compound 0.08 µM) it was 0.144; with XMD8-85 + Luminespib (first compound 0.253 µM), 0.182; with XMD8-85 + Luminespib (first compound 0.8 µM) it was 0.146. Further, the relative viability turned out to be 0.201 with XMD8-85 + Luminespib (first compound 2.53 µM) and 0.23 with XMD8-85 + Luminespib (first compound 8 µM).

BEN: the relative viability worked out at 1.32 with 4EGI-1 + Trametinib (first compound 0.5 µM); 1.05 with 4EGI-1 + Trametinib (first compound 1.581 µM); 1.18 with 4EGI-1 + Trametinib (first compound 5 µM); 0.976 in the test with 4EGI-1 + Trametinib (first compound 15.81 µM); 0.901 with 4EGI-1 + Trametinib (first compound 50 µM); 1.02 with 4EGI-1 + Linsitinib (first compound 0.5 µM). Besides, the relative viability with 4EGI-1 + Linsitinib (first compound 1.581 µM) is 1.03; with 4EGI-1 + Linsitinib (first compound 5 µM) it was 1.02; with 4EGI-1 + Linsitinib (first compound 15.81 µM) it was 0.808; with 4EGI-1 + Linsitinib (first compound 50 µM), 0.729; with 4EGI-1 + Decitabine (first compound 0.5 µM), 0.758; with 4EGI-1 + Decitabine (first compound 1.581 µM) it was 0.635. The relative viability came to 0.78 with 4EGI-1 + Decitabine (first compound 5 µM); 0.578 in the test with 4EGI-1 + Decitabine (first compound 15.81 µM); 0.522 in the test with 4EGI-1 + Decitabine (first compound 50 µM); 0.248 with XMD8-85 + Luminespib (first compound 0.08 µM); 0.333 in the test with XMD8-85 + Luminespib (first compound 0.253 µM); 0.851 with XMD8-85 + Luminespib (first compound 0.8 µM). The relative viability with XMD8-85 + Luminespib (first compound 2.53 µM) came out at 0.357; with XMD8-85 + Luminespib (first compound 8 µM), 0.317.

Take LC-2-ad: the relative viability was determined as 0.919 in the test with 4EGI-1 + Trametinib (first compound 0.5 µM); 0.886 in the test with 4EGI-1 + Trametinib (first compound 1.581 µM); 0.855 with 4EGI-1 + Trametinib (first compound 5 µM); 0.843 in the test with 4EGI-1 + Trametinib (first compound 15.81 µM); 0.595 in the test with 4EGI-1 + Trametinib (first compound 50 µM); 0.897 with 4EGI-1 + Linsitinib (first compound 0.5 µM). For the same cell line, the relative viability with 4EGI-1 + Linsitinib (first compound 1.581 µM) stood at 0.764; with 4EGI-1 + Linsitinib (first compound 5 µM), 0.83; with 4EGI-1 + Linsitinib (first compound 15.81 µM) it was 0.432; with 4EGI-1 + Linsitinib (first compound 50 µM), 0.13; in the test with 4EGI-1 + Decitabine (first compound 0.5 µM), 0.876; with 4EGI-1 + Decitabine (first compound 1.581 µM), 0.859. The relative viability is 0.742 with 4EGI-1 + Decitabine (first compound 5 µM); 0.587 in the test with 4EGI-1 + Decitabine (first compound 15.81 µM); 0.444 with 4EGI-1 + Decitabine (first compound 50 µM); 1.26 with XMD8-85 + Luminespib (first compound 0.08 µM); 0.996 with XMD8-85 + Luminespib (first compound 0.253 µM); 1.22 with XMD8-85 + Luminespib (first compound 0.8 µM). In addition, the relative viability was determined as 0.874 in the test with XMD8-85 + Luminespib (first compound 2.53 µM) and 0.706 in the test with XMD8-85 + Luminespib (first compound 8 µM).

With NCI-H2085, the relative viability with 4EGI-1 + Trametinib (first compound 0.5 µM) turned out to be 0.553; in the test with 4EGI-1 + Trametinib (first compound 1.581 µM), 0.594; with 4EGI-1 + Trametinib (first compound 5 µM), 0.53; in the test with 4EGI-1 + Trametinib (first compound 15.81 µM), 0.355; with 4EGI-1 + Trametinib (first compound 50 µM), 0.364; with 4EGI-1 + Linsitinib (first compound 0.5 µM), 1.03. The relative viability in the test with 4EGI-1 + Linsitinib (first compound 1.581 µM) came out at 0.911; in the test with 4EGI-1 + Linsitinib (first compound 5 µM) it was 0.887; with 4EGI-1 + Linsitinib (first compound 15.81 µM) it was 0.771; with 4EGI-1 + Linsitinib (first compound 50 µM) it was 0.639; with 4EGI-1 + Decitabine (first compound 0.5 µM) it was 0.536; in the test with 4EGI-1 + Decitabine (first compound 1.581 µM), 0.578. Besides, the relative viability in the test with 4EGI-1 + Decitabine (first compound 5 µM) amounted to 0.513; with 4EGI-1 + Decitabine (first compound 15.81 µM) it was 0.488; in the test with 4EGI-1 + Decitabine (first compound 50 µM), 0.317; with XMD8-85 + Luminespib (first compound 0.08 µM) it was 0.412; with XMD8-85 + Luminespib (first compound 0.253 µM), 0.513; with XMD8-85 + Luminespib (first compound 0.8 µM), 0.403. Moreover, the relative viability worked out at 0.348 in the test with XMD8-85 + Luminespib (first compound 2.53 µM) and 0.302 with XMD8-85 + Luminespib (first compound 8 µM).
